Assay results published in US7560468B2, “Substituted 1,4,8-triazaspiro[4,5]decan-2-one compounds” (Gruenenthal GmbH, priority 2004, dated 2009).

What was measured:
[1] = system: batrachotoxin (BTX) binding site of the sodium channel; test: Affinity to the batrachotoxin (BTX) binding site of the sodium channel; conditions: rat cerebrocortex synaptosomes, [3H]-batrachotoxinin A20 α-benzoate 10 nM; test concentration not given
5-HT transporter = biological target: T1, 5-HT transporter (Rattus norvegicus, UniProt P31652); test: Inhibition of 5-HT uptake in synaptosomes; assay type: biochemical; conditions: for inhibition at 1 µM: read-out: Uptake_5-HT, rat, 1 μM, % inhibition
T1 construct: from tissue; host or cells: rat brain synaptosomes (marrow/medulla and pons), P2 fraction
T1 sequence (P31652 whole entry): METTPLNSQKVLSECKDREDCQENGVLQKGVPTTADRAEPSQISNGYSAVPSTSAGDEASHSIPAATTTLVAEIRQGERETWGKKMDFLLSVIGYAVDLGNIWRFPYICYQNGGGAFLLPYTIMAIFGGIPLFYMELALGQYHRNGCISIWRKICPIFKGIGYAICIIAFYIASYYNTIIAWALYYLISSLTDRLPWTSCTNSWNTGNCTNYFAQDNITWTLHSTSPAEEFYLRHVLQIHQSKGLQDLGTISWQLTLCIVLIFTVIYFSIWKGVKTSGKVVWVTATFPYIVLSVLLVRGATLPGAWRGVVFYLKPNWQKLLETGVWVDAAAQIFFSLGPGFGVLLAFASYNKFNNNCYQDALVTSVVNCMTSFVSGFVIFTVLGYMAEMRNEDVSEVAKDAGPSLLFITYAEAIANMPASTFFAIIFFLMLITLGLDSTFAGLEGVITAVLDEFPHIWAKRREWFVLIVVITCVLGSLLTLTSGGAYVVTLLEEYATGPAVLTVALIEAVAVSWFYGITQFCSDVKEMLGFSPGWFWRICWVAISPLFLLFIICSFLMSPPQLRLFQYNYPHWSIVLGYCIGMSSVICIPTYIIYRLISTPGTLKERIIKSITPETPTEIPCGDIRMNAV

| Compound | BTX Inhibition [1] | Uptake_5-HT, rat, 1 μM, % inhibition (5-HT transporter) [%] | inhibition at 1 µM (5-HT transporter) [%] |
| --- | --- | --- | --- |
| CCOC(=O)CN1C(=O)C(Cc2ccccc2)NC12CCN(S(=O)(=O)c1cccc(C)c1)CC2 (stereo not drawn) [Example 63, Ethyl[3-benzyl-2-oxo-8-(toluol-3-sulfonyl)-1,4,8-triazaspiro[4,5]dec-1-yl]-acetate] | 36 | 59 |  |
| CCOC(=O)CN1C(=O)C(Cc2ccccc2)NC12CCN(S(=O)(=O)c1ccccc1)CC2 (stereo not drawn) [Example 66, Ethyl(8-benzolsulfonyl-3-benzyl-2-oxo-1,4,8-triazaspiro[4,5]dec-1-yl)acetate] | 39 | 64 |  |
| CCCc1ccc(S(=O)(=O)N2CCC3(CC2)NC(Cc2ccccc2)C(=O)N3CC(=O)OCC)cc1 (stereo not drawn) [Example 67, Ethyl[3-benzyl-2-oxo-8-(4-propylbenzolsulfonyl)-1,4,8-triazaspiro[4,5]dec-1-yl]-acetate] | 40 | 64 |  |
| CCOC(=O)CN1C(=O)C(Cc2ccccc2)NC12CCN(S(=O)(=O)c1ccc(F)c(Cl)c1)CC2 (stereo not drawn) [Example 69, Ethyl[3-benzyl-8-(3-chloro-4-fluorobenzolsulfonyl)-2-oxo-1,4,8-triazaspiro[4,5]dec-1-yl]-acetate] | 73 | 62 |  |
| O=C1C(Cc2ccccc2)NC2(CCN(S(=O)(=O)c3ccccc3)CC2)N1Cc1ccccc1F (stereo not drawn) [Example 71, 8-Benzolsulfonyl-3-benzyl-1-(2-fluorobenzyl)-1,4,8-triazaspiro[4,5]decan-2-one] | 85 | 76 |  |
| CCOC(=O)CN1C(=O)C(Cc2ccccc2)NC12CCN(S(=O)(=O)c1c(C)cc(C)cc1C)CC2 (stereo not drawn) [Example 72, Ethyl[3-benzyl-2-oxo-8-(2,4,6-trimethylbenzolsulfonyl)-1,4,8-triazaspiro[4,5]dec-1-yl]-acetate] | 75 | 75 |  |
| CCOC(=O)CN1C(=O)C(Cc2ccccc2)NC12CCN(S(=O)(=O)c1cc(OC)ccc1OC)CC2 (stereo not drawn) [Example 74, Ethyl[3-benzyl-8-(2,5-dimethoxy-benzolsulfonyl)-2-oxo-1,4,8-triazaspiro[4,5]dec-1-yl]-acetate] | 30 | 74 |  |
| CSCCC1NC2(CCN(S(=O)(=O)N(C)C)CC2)N(Cc2ccc3ccccc3c2)C1=O (stereo not drawn) [Example 75, 3-(2-Methylsulfanylethyl)-1-naphthalin-2-ylmethyl-2-oxo-1,4,8-triazaspiro[4,5]decan-8-sulfonic acid dimethylamide] | 62 |  | 74 |
| CC(C)C1NC2(CCN(S(=O)(=O)c3ccc4c(c3)CN(C(=O)C(F)(F)F)CC4)CC2)N(Cc2cccc(C#N)c2)C1=O (stereo not drawn) [Example 77, 3-{3-Isopropyl-2-oxo-8-[2-(2,2,2-trifluoroacetyl)-1,2,3,4-tetrahydroisoquinolin-7-sulfonyl]-1,4,8-triazaspiro[4,5]dec-1-ylmethyl}-benzonitrile] | 36 |  | 32 |
| C=CCN1C(=O)C(CCSC)NC12CCN(S(=O)(=O)c1c(C)cc(OC)c(C)c1C)CC2 (stereo not drawn) [Example 79, 1-Allyl-8-(4-methoxy-2,3,6-trimethylbenzolsulfonyl)-3-(2-methylsulfanylethyl)-1,4,8-triazaspiro[4,5]decan-2-one] | 67 | 37 |  |
| CCOC(=O)CN1C(=O)C(Cc2ccccc2)NC12CCN(S(=O)(=O)c1ccccc1C(=O)OC)CC2 (stereo not drawn) [Example 80, Methyl 2-(3-benzyl-1-ethoxycarbonylmethyl-2-oxo-1,4,8-triazaspiro[4,5]decan-8-sulfonyl)benzoate] | 33 |  | 84 |
| O=C1C(Cc2ccccc2)NC2(CCN(S(=O)(=O)c3ccccc3C(F)(F)F)CC2)N1Cc1ccccc1F (stereo not drawn) [Example 81, 3-Benzyl-1-(2-fluorobenzyl)-8-(2-trifluoromethylbenzolsulfonyl)-1,4,8-triazaspiro[4,5]decan-2-one] | 87 | 81 |  |
| CC(C)CC1NC2(CCN(C(=S)Nc3ccc(F)cc3)CC2)NC1=O (stereo not drawn) [Example 112, 2-Isobutyl-3-oxo-1,4,8-triazaspiro[4,5]decan-8-thiocarboxylic acid (4-fluorobenzol)amide] | 30 | 31 |  |
| CCCCN1C(=O)C(C(C)C)NC12CCN(C(=S)Nc1ccccc1)CC2 (stereo not drawn) [Example 116, 1-Butyl-3-isopropyl-2-oxo-1,4,8-triazaspiro[4,5]decan-8-thiocarboxylic acid benzolamide] | 30 | 40 |  |
| CCCCN1C(=O)C(C(C)C)NC12CCN(C(=S)Nc1cc(Cl)ccc1Cl)CC2 (stereo not drawn) [Example 117, 1-Butyl-3-isopropyl-2-oxo-1,4,8-triazaspiro[4,5]decan-8-thiocarboxylic acid (2,5-dichlorobenzol)amide] | 44 | 33 |  |
| CCCCN1C(=O)C(CCSC)NC12CCN(C(=S)Nc1cc(Cl)ccc1Cl)CC2 (stereo not drawn) [Example 120, 1-Butyl-3-(2-methylsulfanylethyl)-2-oxo-1,4,8-triazaspiro[4,5]decan-8-thiocarboxylic acid (2,5-dichlorobenzol)amide] | 49 | 58 |  |
| COCCNC(=S)N1CCC2(CC1)NC(CCSC)C(=O)N2Cc1ccc2ccccc2c1 (stereo not drawn) [Example 121, 3-(2-Methylsulfanylethyl)-1-naphthalin-2-ylmethyl-2-oxo-1,4,8-triazaspiro[4,5]decan-8-thiocarboxylic acid (2-methoxy-ethyl)amide] | 47 |  | 39 |
| CCCCN1C(=O)C(C(C)C)NC12CCN(C(=S)Nc1ccccc1F)CC2 (stereo not drawn) [Example 122, 1-Butyl-3-isopropyl-2-oxo-1,4,8-triazaspiro[4,5]decan-8-thiocarboxylic acid (2-fluorobenzol)amide] | 35 | 32 |  |
| CCCCN1C(=O)C(C(C)C)NC12CCN(C(=S)Nc1cccc(C)c1)CC2 (stereo not drawn) [Example 124, 1-Butyl-3-isopropyl-2-oxo-1,4,8-triazaspiro[4,5]decan-8-thiocarboxylic acid m-tolylamide] | 41 |  | 47 |
| C=CCN1C(=O)C(C(C)C)NC12CCN(C(=S)Nc1cc(F)ccc1F)CC2 (stereo not drawn) [Example 128, 1-Allyl-3-isopropyl-2-oxo-1,4,8-triazaspiro[4,5]decan-8-thiocarboxylic acid (2,5-difluorobenzol)amide] | 33 | 57 |  |
| C=CCNC(=S)N1CCC2(CC1)NC(CCSC)C(=O)N2Cc1ccccc1C#N (stereo not drawn) [Example 129, 1-(2-Cyanobenzyl)-3-(2-methylsulfanylethyl)-2-oxo-1,4,8-triazaspiro[4,5]decan-8-thiocarboxylic acid allylamide] | 36 |  | 41 |
| CCCCN1C(=O)C(CCSC)NC12CCN(C(=S)NCC1CCCCC1)CC2 (stereo not drawn) [Example 132, 1-Butyl-3-(2-methylsulfanylethyl)-2-oxo-1,4,8-triazaspiro[4,5]decan-8-thiocarboxylic acid cyclohexylmethylamide] | 71 |  | 30 |
| CC(C)C1NC2(CCN(C(=S)Nc3cc(Cl)ccc3Cl)CC2)N(Cc2ccccc2)C1=O (stereo not drawn) [Example 136, 1-Benzyl-3-isopropyl-2-oxo-1,4,8-triazaspiro[4,5]decan-8-thiocarboxylic acid (2,5-dichlorobenzol)amide] | 66 | 44 |  |
| CSCCC1NC2(CCN(C(=S)Nc3ccc(C(C)C)cc3)CC2)N(Cc2ccccc2)C1=O (stereo not drawn) [Example 139, 1-Benzyl-3-(2-methylsulfanylethyl)-2-oxo-1,4,8-triazaspiro[4,5]decan-8-thiocarboxylic acid (4-isopropylbenzol)amide] | 97 | 63 |  |
| CSCCC1NC2(CCN(C(=S)Nc3cc(F)ccc3F)CC2)N(Cc2ccccc2)C1=O (stereo not drawn) [Example 140, 1-Benzyl-3-(2-methylsulfanylethyl)-2-oxo-1,4,8-triazaspiro[4,5]decan-8-thiocarboxylic acid (2,5-difluorobenzol)amide] | 53 | 59 |  |
| CCCCN1C(=O)C(C(C)C)NC12CCN(C(=S)Nc1ccccc1C(=O)OC)CC2 (stereo not drawn) [Example 143, Methyl 2-[(1-butyl-3-isopropyl-2-oxo-1,4,8-triazaspiro[4,5]decan-8-carbothioyl)amino]-benzoate] | 51 |  | 32 |
| CCOC(=O)CN1C(=O)C(Cc2ccccc2)NC12CCN(C(=S)Nc1ccccc1C(=O)OC)CC2 (stereo not drawn) [Example 145, Methyl 2-[(3-benzyl-1-ethoxycarbonylmethyl-2-oxo-1,4,8-triazaspiro[4,5]decan-8-carbothioyl)amino]-benzoate] | 69 |  | 67 |
| CCOC(=O)NC(=S)N1CCC2(CC1)NC(CCSC)C(=O)N2Cc1ccccc1C#N (stereo not drawn) [Example 146, Ethyl[1-(2-cyanobenzyl)-3-(2-methylsulfanylethyl)-2-oxo-1,4,8-triazaspiro[4,5]decan-8-carbothioyl]-carbamate] | 30 |  | 30 |
| CSCCC1NC2(CCN(C(=S)NC(C)c3ccccc3)CC2)N(Cc2ccc3ccccc3c2)C1=O (stereo not drawn) [Example 148, 3-(2-Methylsulfanylethyl)-1-naphthalin-2-ylmethyl-2-oxo-1,4,8-triazaspiro[4,5]decan-8-thiocarboxylic acid (1-benzol-ethyl)amide] | 88 | 49 |  |
| CC(C)C1NC2(CCN(C(=S)Nc3cc(Cl)cc(Cl)c3)CC2)N(Cc2ccccc2)C1=O (stereo not drawn) [Example 177, 1-Benzyl-3-isopropyl-2-oxo-1,4,8-triazaspiro[4,5]decan-8-thiocarboxylic acid (3,5-dichlorobenzol)amide] | 46 | 36 |  |
